Source: patent US9481683B2, “1,3-benzothiazinone sulfoxide and sulfone compounds” (UNIVERSITY OF NOTRE DAME DU LAC, priority 2014, dated 2016)
≈ marks a conversion by molar mass, not a printed value. Like-named read-outs stand apart in the source and are kept apart here.

Tests used:
M. luteus ATCC10240 = assay: Broth microdilution MIC, M. luteus; assay type: cell-based; settings: 37° C., 18-20 h, average of three measurements
M. aurum (SB66) = assay: Broth microdilution MIC, M. aurum; assay type: cell-based, Mycobacterium aurum; settings: 37° C., 18-20 h, average of three measurements, in µM
S. aureus SG511 = assay: Broth microdilution MIC, S. aureus; assay type: cell-based, Staphylococcus aureus; settings: 37° C., 18-20 h, average of three measurements
P. aeruginosa KW799/61 = assay: Broth microdilution MIC, P. aeruginosa; assay type: cell-based, Pseudomonas aeruginosa; settings: 37° C., 18-20 h, average of three measurements
M. vaccae IMET10670 = assay: Broth microdilution MIC, M. vaccae; assay type: cell-based, Mycobacterium vaccae; settings: 37° C., 18-20 h, average of three measurements
M. smegmatis (MC2155) = assay: Broth microdilution MIC, M. smegmatis; assay type: cell-based, Mycobacterium smegmatis; settings: 37° C., 18-20 h, average of three measurements
A. baumanii ATCC17961 = assay: Broth microdilution MIC, A. baumanii; assay type: cell-based, Acinetobacter baumanii; settings: 37° C., 18-20 h, average of three measurements
MCF-7 (breast cancer) = assay: Cytotoxicity, crystal violet biomass reduction assay, MCF-7; assay type: cell-based; settings: 72 h
Procedure: (§1) Cytotoxicity Assays: against PC3, HeLa and MCF-7 cell lines.
(§2) In vitro activities against cells were determined with a crystal violet biomass reduction assay. Cells were grown in media supplemented with fetal bovin serum and penicillin/streptromycin antibiotic. 100 μL of cell inoculums was added to each well. After cell inoculation, the 96 well micro-titer plates were incubated at 37° C. and 5% CO2 with 95% humidity for 24 h prior to addition of compounds. A stock solution of each compound was made in DMSO and then diluted with media to give a 40 μM solution. 100 μL of DMSO/media solutions of compounds were added in replicates of 3. 100 μL solution was added to the first set of wells. Two-fold serial dilutions were made down each row of the micro-titer plate. The cells were incubated in a 37° C., 5% CO2 and 95% humidity for 72 h. The media was removed and the cells were fixed with glutaraldehyde, rinsed, stained with crystal violet, rinsed and air dried. The stain was eluted with a solution of Triton-X-100 and optical density was measured at 595 nm. Trichostatin A was used as a positive control for all the cell lines tested.

HeLa = assay: Cytotoxicity, crystal violet biomass reduction assay, HeLa; assay type: cell-based; settings: 72 h
Procedure: as §1, §2

[1] = tested on: M. bovis BCG (ATCC: 35734); assay type: cell-based, Mycobacterium bovis; settings: for In vitro activity (MIC) M. bovis: M. bovis BCG, 7H12, 37° C., 6 days
M. marinum (ATCC: 927) = assay: NTM MIC assay, M. marinum; assay type: cell-based, Mycobacterium marinum; settings: for In vitro activity (MIC) M. marinum: Middlebrook 7H9 with OADC, 30° C., 5 days
Mtb H37Rv (ATCC#27294) = assay: Microplate Alamar Blue assay (MABA), replicating TB; assay type: cell-based, Mycobacterium tuberculosis; settings: for MIC: Mycobacterium tuberculosis, H37Rv, reduction in fluorescence of ≧90%
M. kansasii (ATCC:12478) = assay: NTM MIC assay, M. kansasii; assay type: cell-based, Mycobacterium kansasii; settings: for In vitro activity (MIC) M. kansasii: Middlebrook 7H9 with OADC, 37° C., 6 days
PC3 (prostate cancer) = assay: Cytotoxicity, crystal violet biomass reduction assay, PC3; assay type: cell-based; settings: 72 h
Procedure: as §1, §2

[2] = 7H12 medium, read-out: MABA:MIC 7H12
[3] = glycerol-alanine-salts medium, read-out: MABA:MIC GAS

SMILES | In vitro activity (MIC) M. luteus ATCC10240 (M. luteus ATCC10240) [µM] | In vitro activity (MIC) M. aurum (M. aurum (SB66)) | In vitro activity (MIC) S. aureus SG511 (S. aureus SG511) [µM] | In vitro activity (MIC) P. aeruginosa KW799/61 (P. aeruginosa KW799/61) | In vitro activity (MIC) M. vaccae IMET10670 (M. vaccae IMET10670) [µM] | In vitro activity (MIC) M. smegmatis (M. smegmatis (MC2155)) [µM] | In vitro activity (MIC) A. baumanii ATCC17961 (A. baumanii ATCC17961) [µM] | Cytotoxicity MCF-7 (MCF-7 (breast cancer)) | Cytotoxicity HeLa (HeLa) | Activity against M. bovis (in words) [1] | In vitro activity (MIC) M. bovis [1] [µM] | In vitro activity (MIC) M. marinum (M. marinum (ATCC: 927)) [µM] | Activity against M. tuberculosis (in words) (Mtb H37Rv (ATCC#27294)) | MIC (Mtb H37Rv (ATCC#27294); [2]) [µM] | MIC (Mtb H37Rv (ATCC#27294); [3]) [µM] | In vitro activity (MIC) M. kansasii (M. kansasii (ATCC:12478)) [µM] | Cytotoxicity PC3 (PC3 (prostate cancer)) | Activity against M. marinum (in words) (M. marinum (ATCC: 927)) | Activity against M. kansasii (in words) (M. kansasii (ATCC:12478))
O=C(O)c1cn(C2CC2)c2cc(N3CCNCC3)c(F)cc2c1=O [Ciprofloxacin, reference compound] | 1.25 | 0.020 | 0.32 | 0.156 | 0.32 | 0.32 | 0.156 | – | – | – | – | – | – | – | – | – | – | – | –
C[C@H]1COC2(CCN(c3nc(=O)c4cc(C(F)(F)F)cc([N+](=O)[O-])c4s3)CC2)O1 [Compound 1, BTZ043, reference compound] | > 200 | >200 | > 0.2 | >200 | 0.002 | 0.002 | > 200 | >20 | >20 | impressive activity | < 0.02 | 0.037 | impressive activity | < 0.02 | < 0.02 | < 0.02 | >20 | – | –
C[C@H]1COC2(CCN(c3nc(=O)c4cc(C(F)(F)F)cc([N+](=O)[O-])c4[s+]3[O-])CC2)O1 (stereo partly drawn) [Compound 5, 2-((S)-2-Methyl-1,4-dioxa-8-azaspiro[4.5]decan-8-yl)-8-nitro-6-(trifluoromethyl)-4H-benzo[e][1,3]thiazin-4-one 1-oxide] | 50 | 3.13-12.5 | 12.5 | >200 | < 0.013 | < 0.013 | > 200 | >20 | >20 | impressive activity | 0.21 | 0.19 | impressive activity | 0.06 (≈ 0.0268 µg/mL) | < 0.02 | 0.3 | 15 | demonstrated activity | demonstrated activity
C[C@H]1COC2(CCN(C3=NC(=O)c4cc(C(F)(F)F)cc([N+](=O)[O-])c4S3(=O)=O)CC2)O1 [Compound 6, (S)-2-(2-Methyl-1,4-dioxa-8-azaspiro[4.5]decan-8-yl)-8-nitro-6-(trifluoromethyl)-4H-benzo[e][1,3]thiazin-4-one 1,1-dioxide] | > 200 | >200 | 0.2 | >200 | < 0.013 | > 0.5 | > 200 | >20 | >20 | only weakly active | – | – | only weakly active | 1.46 (≈ 0.677 µg/mL) | 0.75 | – | >20 | either inactive or weakly inactive | either inactive or weakly inactive
NNC(=O)c1ccncc1 [INH] | – | – | – | – | – | – | – | – | – | – | 0.5 | > 8 | – | 0.1 (≈ 0.0137 µg/mL) | 0.03 | 3.86 | – | – | –
CO[C@H]1/C=C/O[C@@]2(C)Oc3c(C)c(O)c4c(O)c(c(/C=N/N5CCN(C)CC5)c(O)c4c3C2=O)NC(=O)/C(C)=C\C=C\[C@H](C)[C@H](O)[C@@H](C)[C@@H](O)[C@@H](C)[C@H](OC(C)=O)[C@@H]1C [Rifampin] | – | – | – | – | – | – | – | – | – | – | 0.02 | 0.23 | – | 0.05 (≈ 0.0411 µg/mL) | 0.04 | 0.1 | – | – | –
